Source: patent publication US20220390459A1, “RAPID, HIGH-INTENSITY CHEMILUMINESCENT DIOXETANES” (Beckman Coulter, Inc., priority 2019, published 2022)

Test system: alkaline phosphatase
Assay: Chemiluminescence intensity over time after combining the phosphate dioxetane with alkaline phosphatase solution
Type: biochemical
Conditions: for profile of emission intensity over time (in words): alkaline phosphatase in 221 buffer, compound and TBE concentration differ per example; for intensity and speed of luminescence compared with other examples (in words): AP8, TBE enhancer in 221 buffer, concentrations differ per example
[1] = compound 1.25 mg/mL, TBE enhancer 5 mg/mL in 221 buffer, 100 μL + 10 μL AP8, 37° C.
[2] = compound 0.125 mg/mL, TBE enhancer 2.5 mg/mL in 221 buffer, 100 μL + 10 μL AP8, 37° C.
[3] = compound 0.25 mg/mL, TBE enhancer 5 mg/mL in 221 buffer, 100 μL + 10 μL AP8, 37° C.
[4] = compound 0.25 mg/mL, TBE enhancer 2.5 mg/mL in 221 buffer, 100 μL + 10 μL AP8, 37° C.
[5] = compound 0.2 mg/mL in 221 buffer without TBE enhancer, 100 μL + 10 μL AP9 [1.24E-20 mole/μL], 37° C.

Row | Compound | profile of emission intensity over time (in words) (37° C.) | intensity and speed of luminescence compared with other examples (in words) (37° C.) | time to reach maximum, steady-state intensity [3] [min] | Σ value [3] | further results
1 | COC1(c2cccc(OP(=O)([O-])[O-])c2)OOC12C1CC3CC(C1)CC2C3.[Na+].[Na+] (centres unmarked) [Example 12, 4-methoxy-4-(3-phosphatephenyl)spiro[1,2-dioxetane-3,2′-adamantane], reference compound] | slow and gradual increase in emission intensity | – | – | – | profile of emission intensity over time (in words) (37° C., listed as Lumigen® PPD): slow luminescence; time to reach maximum light intensity or steady-state plateau [1]: more than 15 minutes; Σ value [1]: 2.27E+05
2 | COC1(c2ccc(Cl)c(OP(=O)([O-])[O-])c2)OOC12C1CC3CC2CC(Cl)(C3)C1.[Na+].[Na+] (centres unmarked) [Example 13, reference compound] | slow and gradual increase in emission intensity | – | – | – | profile of emission intensity over time (in words) (37° C., listed as Tropix CDP-Star®): slow luminescence; time to reach maximum light intensity or steady-state plateau [2]: more than 15 minutes; Σ value [2]: 1.91E+05
3 | COC1(c2ccc(-c3cccs3)c(OP(=O)([O-])[O-])c2)OOC12C1CC3CC(C1)CC2C3.[Na+].[Na+] (centres unmarked) [Example 14] | rapid increase in intensity | higher intensity and faster response compared to the compound of Examples 12-13 | ≤ 1 | 9.97E+05 | –
4 | COC1(c2ccc(-c3ccsc3)c(OP(=O)([O-])[O-])c2)OOC12C1CC3CC(C1)CC2C3.[Na+].[Na+] (centres unmarked) [Example 15] | rapid increase in intensity | higher intensity and faster response compared to the compound of Examples 12-13 | ≤ 2 | 7.38E+05 | –
5 | C=Cc1ccc(C2(OC)OOC23C2CC4CC(C2)CC3C4)cc1OP(=O)([O-])[O-].[Na+].[Na+] (centres unmarked) [Example 16] | rapid increase in intensity | higher intensity and faster response compared to the compound of Examples 12-15 | – | – | time to reach maximum, steady-state intensity [4]: less than 3 minutes; Σ value [4]: 1.59E+06
6 | COC1(c2ccc(-c3ccc(C#N)s3)c(OP(=O)([O-])[O-])c2)OOC12C1CC3CC(C1)CC2C3.[Na+].[Na+] (centres unmarked) [Example 17] | rapid increase in intensity | – | – | – | time to reach maximum, steady-state intensity [5]: ≤ 2 min; Σ value [5]: 2.77E+05
